The numbers were not newly measured in patent US12496330B2, “Methods of improving spinal fusion with abaloparatide” (Radius Health, Inc., priority 2019, dated 2025), which cites them from elsewhere.

For the data set, the system named is bone resorption and bone formation markers. The following applies: male mice; at 4-fold the current dose.

For the compound `CC[C@H](C)[C@H](NC(=O)[C@H](CCC(=O)O)NC(=O)[C@H](CO)NC(=O)[C@@H](NC(=O)[C@@H](N)CO)C(C)C)C(=O)N[C@@H](CCC(N)=O)C(=O)N[C@@H](CC(C)C)C(=O)N[C@@H](CCSC)C(=O)N[C@@H](Cc1cnc[nH]1)C(=O)N[C@@H](CC(N)=O)C(=O)N[C@@H](CC(C)C)C(=O)NCC(=O)N[C@@H](CCCCN)C(=O)N[C@@H](Cc1cnc[nH]1)C(=O)N[C@@H](CC(C)C)C(=O)N[C@@H](CC(N)=O)C(=O)N[C@@H](CO)C(=O)N[C@@H](CCSC)C(=O)N[C@@H](CCC(=O)O)C(=O)N[C@@H](CCCN=C(N)N)C(=O)N[C@H](C(=O)N[C@@H](CCC(=O)O)C(=O)N[C@@H](Cc1c[nH]c2ccccc12)C(=O)N[C@@H](CC(C)C)C(=O)N[C@@H](CCCN=C(N)N)C(=O)N[C@@H](CCCCN)C(=O)N[C@@H](CCCCN)C(=O)N[C@@H](CC(C)C)C(=O)N[C@@H](CCC(N)=O)C(=O)N[C@@H](CC(=O)O)C(=O)N[C@H](C(=O)N[C@@H](Cc1cnc[nH]1)C(=O)N[C@@H](CC(N)=O)C(=O)N[C@@H](Cc1ccccc1)C(=O)O)C(C)C)C(C)C` [teriparatide], the Bone resorption markers result is reported as “increased”.
